From ChEMBL document CHEMBL1201862, “PubChem BioAssay data set” (2004)
Active and inactive are the calls of the source.

Tests used:
[1] = molecular target: Dual specificity protein kinase CLK1 (Homo sapiens, UniProt P49759); test: inhibition of human CLK1 activity – biochemical, cherry-picked samples, selectivity assay for Dyrk1A inhibitor project, dose response (AID 588811)
[2] = molecular target: T1, Mannose-6-phosphate isomerase (Homo sapiens, UniProt P34949); test: phosphomannose isomerase inhibition – biochemical, fluorescence intensity, confirmation (AID 1535)
T1 sequence (P34949 whole entry): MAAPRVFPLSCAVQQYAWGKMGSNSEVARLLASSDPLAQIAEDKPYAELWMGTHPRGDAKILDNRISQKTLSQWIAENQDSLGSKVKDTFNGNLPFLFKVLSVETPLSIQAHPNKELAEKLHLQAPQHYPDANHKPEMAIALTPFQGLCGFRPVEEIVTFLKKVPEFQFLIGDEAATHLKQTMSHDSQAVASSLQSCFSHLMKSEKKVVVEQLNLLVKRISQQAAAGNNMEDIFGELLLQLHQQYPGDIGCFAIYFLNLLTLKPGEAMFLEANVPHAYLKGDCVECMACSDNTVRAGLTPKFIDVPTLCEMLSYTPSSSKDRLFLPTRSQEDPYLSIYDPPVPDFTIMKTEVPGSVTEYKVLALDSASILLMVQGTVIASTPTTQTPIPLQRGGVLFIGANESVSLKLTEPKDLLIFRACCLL

[3] = molecular target: Phosphomannomutase 2 (Homo sapiens, UniProt O15305); test: Counter screen SAR assay for PMM2 inhibitors via a fluorescence intensity assay. [Related pubchem assays (depositor defined):AID1545, AID1574]
[4] = molecular target: Potassium voltage-gated channel subfamily KQT member 2 (Rattus norvegicus, UniProt O88943); test: rat KCNQ2 current potentiators – automated patch clamp, KCNQ2-CHO cells, SAR follow-up (AID 493113); assay type: functional
[5] = molecular target: Dual specificity protein phosphatase 3 (Homo sapiens, UniProt P51452); test: SAR VHR1 Fluorescent Assay for In Vitro dose response studies Set 3. [Related pubchem assays (depositor defined):AID1654, AID1661, AID1878]; assay type: functional
[6] = tested on: INS1; test: beta-cell survival under cytokine stress – INS-1E, ATP luminescence, dry powder, dose response (AID 488844); assay type: functional, cell-based; conditions: Rattus norvegicus

Chain of Potassium voltage-gated channel subfamily KQT member 2 (O88943 whole entry): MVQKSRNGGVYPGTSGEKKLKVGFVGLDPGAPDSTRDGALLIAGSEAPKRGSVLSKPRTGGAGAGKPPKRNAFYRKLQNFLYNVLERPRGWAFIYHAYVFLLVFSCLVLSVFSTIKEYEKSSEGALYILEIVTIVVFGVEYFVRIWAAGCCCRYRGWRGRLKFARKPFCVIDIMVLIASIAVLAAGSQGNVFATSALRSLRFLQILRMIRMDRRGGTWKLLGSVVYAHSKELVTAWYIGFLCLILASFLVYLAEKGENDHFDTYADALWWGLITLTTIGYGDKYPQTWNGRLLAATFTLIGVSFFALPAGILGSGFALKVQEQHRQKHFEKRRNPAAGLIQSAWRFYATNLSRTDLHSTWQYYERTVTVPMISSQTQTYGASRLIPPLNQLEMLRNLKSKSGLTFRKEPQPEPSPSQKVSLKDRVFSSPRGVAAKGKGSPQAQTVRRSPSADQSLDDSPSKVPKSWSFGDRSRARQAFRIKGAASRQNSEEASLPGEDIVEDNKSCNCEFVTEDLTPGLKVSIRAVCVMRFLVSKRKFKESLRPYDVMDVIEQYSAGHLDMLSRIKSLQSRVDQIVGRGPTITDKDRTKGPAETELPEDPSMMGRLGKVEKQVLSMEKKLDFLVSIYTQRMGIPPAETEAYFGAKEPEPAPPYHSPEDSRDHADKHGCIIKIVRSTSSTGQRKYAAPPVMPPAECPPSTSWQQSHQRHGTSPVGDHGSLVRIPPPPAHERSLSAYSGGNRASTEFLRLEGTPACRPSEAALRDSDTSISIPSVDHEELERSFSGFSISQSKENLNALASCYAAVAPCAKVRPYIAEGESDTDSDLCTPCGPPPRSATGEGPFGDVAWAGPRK
Chain of Phosphomannomutase 2 (O15305 whole entry): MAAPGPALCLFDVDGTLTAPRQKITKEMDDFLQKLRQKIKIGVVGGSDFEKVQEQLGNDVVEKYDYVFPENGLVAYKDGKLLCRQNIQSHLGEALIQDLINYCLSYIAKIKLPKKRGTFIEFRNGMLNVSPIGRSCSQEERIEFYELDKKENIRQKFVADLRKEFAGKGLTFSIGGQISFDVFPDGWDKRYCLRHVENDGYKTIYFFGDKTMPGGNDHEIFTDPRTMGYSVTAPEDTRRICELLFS
Chain of Dual specificity protein phosphatase 3 (P51452 whole entry): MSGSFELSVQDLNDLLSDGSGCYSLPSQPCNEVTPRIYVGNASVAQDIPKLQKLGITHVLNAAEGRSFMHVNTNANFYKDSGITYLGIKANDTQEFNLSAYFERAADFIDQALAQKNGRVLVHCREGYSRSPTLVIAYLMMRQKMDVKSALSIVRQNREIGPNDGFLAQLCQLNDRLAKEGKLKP
Chain of Dual specificity protein kinase CLK1 (P49759 whole entry): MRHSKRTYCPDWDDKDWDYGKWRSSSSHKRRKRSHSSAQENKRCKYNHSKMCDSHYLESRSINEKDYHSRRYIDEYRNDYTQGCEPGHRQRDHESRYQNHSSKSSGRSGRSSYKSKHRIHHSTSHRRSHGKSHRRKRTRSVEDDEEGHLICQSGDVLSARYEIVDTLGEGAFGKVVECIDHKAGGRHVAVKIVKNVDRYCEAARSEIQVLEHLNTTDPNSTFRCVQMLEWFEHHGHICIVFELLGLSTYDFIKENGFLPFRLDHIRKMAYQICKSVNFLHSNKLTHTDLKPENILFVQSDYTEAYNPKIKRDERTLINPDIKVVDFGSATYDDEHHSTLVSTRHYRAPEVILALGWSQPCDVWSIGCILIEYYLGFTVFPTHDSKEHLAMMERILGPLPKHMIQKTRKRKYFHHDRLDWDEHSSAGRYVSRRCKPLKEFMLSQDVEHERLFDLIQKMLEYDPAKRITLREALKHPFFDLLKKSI

In the case of CN(Cc1cccs1)c1ncnc2ccc(-c3ccc4c(c3)OCO4)cc12, the AC50 [1] is reported as < 0.00195 µM (active).

Clc1nss/c1=N\c1ccccc1Br was tested, and the IC50 [2] was 11.9 µM (active) and the IC50 [3] was 57.3 µM (active).

In the case of O=C(Nc1ccc(Cl)cc1Cl)C1CC2CCC1C2 (stereo unspecified), the EC50 [4] is reported as 1.52 µM (active).

In the case of CC(C)(C)c1ccc(C(=O)NCc2nnc(SCC(=O)Nc3nc4ccccc4s3)n2-c2cccc(Cl)c2)cc1, the IC50 [5] is reported as > 66 µM (inactive).

COc1ccc(S(=O)(=O)N(C)C[C@@H]2Oc3c(NS(=O)(=O)c4ccc(Cl)cc4)cccc3C(=O)N([C@@H](C)CO)C[C@H]2C)cc1 was tested, and the AC50 [6] was > 260 µM (inactive).
